How the values were obtained:
[1] = microbe, parasite or virus in culture; conditions: Mycobacterium tuberculosis, 96 h, read-out: pIC50 (converted)
[2] = microbe, parasite or virus in culture; conditions: Mycobacterium tuberculosis, 72 h, read-out: pIC50 (converted)

Row | Structure (SMILES) | IC50 [1] [µM] | IC50 [2] [µM]
1 | CC(=O)c1c(C)[nH]c(C(=O)OCC(=O)N(C)C)c1C | 286 | 279
2 | CC(=O)c1c(F)cccc1N1CCOCC1 | > 501 | > 501
3 | CC(=O)N1CCC(C(=O)c2ccc(C)cc2)CC1 | > 501 | 100
4 | CSc1nnc(CN(C)CCO)s1 | 56.6 | > 501
5 | CCn1c(C(=O)N2CCOCC2C)cc2ccccc21 (stereo not drawn) | 303 | 191
6 | CC1CCCN(CC(=O)Nc2ccccc2C(N)=O)C1 (stereo not drawn) | > 501 | 248
7 | CC(C)Sc1nc(-c2ccccn2)no1 | 312 | 320
8 | CC1=CCN(C(=O)c2ccsc2)CC1 | > 501 | 160
9 | CC(NC(=O)c1ccc(Cl)c(I)c1)C(=O)N(C)C (stereo not drawn) | > 501 | > 501
10 | CCC(C(=O)N1CCC(N)CC1)c1ccccc1 (stereo not drawn) | > 501 | 118
11 | COc1ccc(OC)c(NC(=O)c2ccccn2)c1 | 156 | 173
12 | CC(C)C(=O)N1CCC(C(=O)c2ccc(O)cc2)CC1 | > 501 | 5.6
13 | NC(=O)C(Sc1nncs1)c1ccc(Br)cc1 (stereo not drawn) | 266 | 412
14 | CN1CCN(C(=O)c2cc3c(F)cccc3s2)CC1 | > 501 | 165
15 | CCNc1nnc(SCc2ncccc2C)s1 | 58 | 96.1
16 | CCOc1ccc2cc(S(=O)(=O)NCCO)ccc2c1 | 9.01 | 5.84
17 | CN(CC(=O)Nc1sccc1C(N)=O)Cc1cccs1 | > 501 | 117
18 | CCOc1cc(C(=O)NCCCOC(C)C)ccn1 | 137 | 87.9
19 | COc1cc(C(=O)NC(C)CC#N)ccc1C (stereo not drawn) | 184 | 185
20 | Cc1cnn(CCNc2ccc(F)cn2)c1 | > 501 | 365
21 | CN(CCc1ccccc1)CCS(=O)(=O)CCC(N)=O | 175 | 442
22 | Cc1cccc(N2CCCC(N)C2)n1 (stereo not drawn) | 150 | 119
23 | N[C@@H]1CCN(Cc2cc(F)cc(C(F)(F)F)c2)C[C@H]1O | > 501 | 266
24 | CCc1nnsc1C(=O)N1CCc2sccc2C1 | > 501 | 176
25 | O=C(CNC(=O)c1cccs1)c1ccccc1 | > 501 | > 501
26 | O=C(Nc1nc(-c2ccsc2)ns1)C1CCCN1 (stereo not drawn) | > 501 | > 501
27 | NCC(CO)Cc1ccsc1 (stereo not drawn) | 176 | 122

Row | Structure (SMILES) | IC50 [1] [µM] | IC50 [2] [µM]
28 | COC(=O)CNC(=O)c1ccc(C)c(-n2cccc2)c1 | > 501 | > 501
29 | O=C(NC1CCCc2ccccc21)c1ccncc1 (stereo not drawn) | > 501 | 146
30 | Cc1cnn(CCNCc2nccn2C)c1 | 294 | 306
31 | Cc1cc(Br)oc1C(=O)Nc1ncccc1O | 157 | 322
32 | CCc1noc(Cn2nc(C(F)(F)F)ccc2=O)n1 | 365 | 47.8
33 | CN(C)c1ccc(C(=O)N(C)C2(C#N)CCC2)cc1F | > 501 | > 501
34 | COC(=O)CSCC(=O)Nc1cc(F)cc(F)c1 | > 501 | 204
35 | COCCC(=O)NCC(C)c1ccc(F)c(F)c1 (stereo not drawn) | > 501 | > 501
36 | COC(=O)c1snc(-c2ccccc2)c1N | 97 | 103
37 | CCOc1ncc(C(=O)NCC(C)(O)C(C)C)cc1Cl (stereo not drawn) | 141 | 59.9
38 | CC1c2ccsc2CCN1CCC(=O)NC(N)=O (stereo not drawn) | 128 | 78.1
39 | O=C(CCN1CCN(c2ccccn2)CC1)NC1CC1 | > 501 | > 501
40 | NC(=O)C(Sc1nnc[nH]1)c1ccc(Br)cc1 (stereo not drawn) | > 501 | > 501
41 | CC(CNC(=O)Cn1cccn1)Sc1ccccc1 (stereo not drawn) | 121 | 135
42 | Cc1cc(NC(=O)CN(C)Cc2ccccc2)no1 | 243 | 266
43 | CC(C)NS(=O)(=O)c1cc(CN)ccc1F | > 501 | > 501
44 | COc1cccc(CN2CCC3(CC2)OCC(C)O3)c1 (stereo not drawn) | 244 | 394
45 | CC(=O)c1ccc(S(C)(=O)=O)c(N2CCC(C)(C)C2)c1 | > 501 | > 501
46 | O=C(NCc1cccs1)c1cnccn1 | 80.5 | 33.9
47 | CC(C)c1cccc(S(=O)(=O)NCCN)c1 | > 501 | 219
48 | Cc1cccc(C[S+]([O-])CC(=O)NCC2CC2)c1 (stereo not drawn) | > 501 | > 501
49 | COCCOc1ccc(NC(=O)OCC(F)(F)F)cn1 | 110 | 208
50 | NCCc1ccc(OCC(F)(F)F)nc1 | 211 | 111
51 | Cc1ccc(OC(C)CN)cc1 (stereo not drawn) | 166 | 77
52 | Cc1cc(N2CCC2c2ccccc2)n2ncnc2n1 (stereo not drawn) | 245 | 162
53 | COc1cccc(S(=O)(=O)CCN2CCC(O)CC2)c1 | > 501 | 397
54 | O=C(c1cnsn1)N1CCN(Cc2ccc(Cl)s2)CC1 | 71 | 45.6

Row | Structure (SMILES) | IC50 [1] [µM] | IC50 [2] [µM]
55 | CCCNC(=O)c1ccc(C(=O)OC)cc1 | > 501 | 120
56 | CNC(=O)COC(=O)Cc1ccc(Br)cc1 | > 501 | > 501
57 | NC(=O)c1cnc(NC2CCc3ccccc32)c(Cl)c1 (stereo not drawn) | 196 | 199
58 | COCc1ccc(SCC(=O)N(C)C)cc1 | > 501 | > 501
59 | CCC1Oc2c(Cl)cccc2NC1=O (stereo not drawn) | > 501 | > 501
60 | NCC1CCCN(c2ncccn2)C1 (stereo not drawn) | > 501 | 288
61 | O=C(NCc1ccc(Br)o1)[C@@H]1CCCO1 | > 501 | 242
62 | CCNC(=O)c1cc(N2CCCC(C)CC2)ccn1 (stereo not drawn) | 237 | 143
63 | CCN1CCN(Cc2cc(C(C)=O)ccc2OC)CC1 | > 501 | 367
64 | N#CC1(NC(=O)CCc2ccc(Cl)s2)CCOCC1 | > 501 | 236
65 | CC(C)(N)C(O)c1ccc(Br)cc1 (stereo not drawn) | > 501 | 126
66 | NC1CCCc2occc21 (stereo not drawn) | 245 | 142
67 | CC(C)c1ccc(C(N)CNS(C)(=O)=O)cc1 (stereo not drawn) | 268 | 202
68 | Cc1noc(CSc2ccc(C(=O)N3CCC3)cc2)n1 | > 501 | > 501
69 | CCn1ncnc1CN1CC(Oc2ccccc2)C1 | > 501 | 151
70 | O=C(CCNCCO)c1ccccc1 | > 501 | 137
71 | Cc1nn(CCN(C)c2ccccc2)c(N)c1C#N | > 501 | 265
72 | COc1cccc(C(=O)Nc2ccnn2C(C)C)c1 | > 501 | 259
73 | COc1c(CNCCS(C)(=O)=O)c(C(C)C)nn1C | > 501 | > 501
74 | CNC(=O)C1CCN(C(=O)CCc2cccs2)CC1 | 111 | 38.8
75 | CN(Cc1cc(Br)cs1)C(=O)CC1(N)CCC1 | > 501 | 158
76 | COc1ccccc1CNc1ccc(C#N)cn1 | 279 | 194
77 | Cc1cc(C)cc(NC(=O)CNCCCO)c1 | > 501 | > 501
78 | COc1cc(C)c(S(=O)(=O)N2C[C@@H](O)[C@@H](O)C2)cc1C | > 501 | 229
79 | COc1ccc(C(=O)NCc2ncnn2C)cc1Br | > 501 | 326

Reference: ChEMBL document CHEMBL3988442, “University of Dundee, Small-Polar-MMV Screening Library” (2021)
